In US8000781B2, “Method of evaluating effect of prolonging QT interval in electrocardiogram” (Eisai R&D Management Co., Ltd., priority 2005, dated 2011):
Like-named read-outs stand apart in the source and are kept apart here.

Assays:
[1] = test system: hamster under mixed anesthesia with pentobarbital and xylazine; conditions: n=5; for Influence on the QRS interval / Influence on the RR interval: over the doses tested
[2] = test system: anesthetized dogs; conditions: calculated on the basis of the results of the cited report; cited from earlier work

Row | Compound | Degree of prolongation of the QT interval ([1]; 1 mg/kg iv) | Influence on the QRS interval ([1]; iv) | Influence on the RR interval ([1]; iv) | Single dose for intravenous administration providing 10% of prolongation of the duration of monophasic action potential [2] | Degree of prolongation of the QT interval ([1]; 100 μg/kg iv) | Influence on the PQ interval ([1]; iv, doses tested 1, 10 and 100 μg/kg)
1 | CC(C)(C)c1ccc(C(O)CCCN2CCC(C(O)(c3ccccc3)c3ccccc3)CC2)cc1 (centres unmarked) [terfenadine] | about 20% | did not significantly affect | did not significantly affect |  |  | 
2 | COc1cc(N)c(Cl)cc1C(=O)NC1CCN(CCCOc2ccc(F)cc2)CC1OC (centres unmarked) [cisapride] |  | did not significantly affect | did not significantly affect | 0.1 mg/kg | about 20% | did not significantly affect
